Data as given in paper PMC3003687, “α-Galactosylceramide Analogs with Weak Agonist Activity for Human iNKT Cells Define New Candidate Anti-Inflammatory Agents” (PLoS ONE, 2010).

Target: T1, hCD1d (Homo sapiens, UniProt P15813)
T1 construct: we generated soluble and fluorescent tetrameric hCD1d molecules loaded with each of the glycolipid analogs; made in house
Assay: Loading of hCD1d tetramers with variable glycolipid to CD1d ratios
Assay type: binding
Conditions: 20 nM tetramers, 25 to 1000 fold molar excess of glycolipid to hCD1d, HDD3 clone
Excerpt: To characterize in more detail the iNKT cell TCR recognition of αGalCer analogs presented by human CD1d, we generated soluble and fluorescent tetrameric hCD1d molecules loaded with each of the glycolipid analogs. […] This was similar to the previously reported failure of mouse CD1d tetramer loaded with lysosulfatide to bind detectably to murine non-invariant and sulfatide specific NKT cells, despite a clear reactivity to this lipid upon presentation by APCs; [40]. […] To quantitate their binding avidities to iNKT cell TCRs, we used titration of analog-loaded hCD1d tetramers to determine equilibrium dissociation constants (KD), which are inversely proportional to avidity (Figure 3A and 3B).
Figure 3 Characterization of human iNKT cell TCR interactions with analog-loaded tetramers. (A) iNKT cell clones were stained with titrated amounts of hCD1d tetramers loaded with the indicated glycolipids (abbreviations as in legend to Figure 1), and the measured MFI values are plotted for selected glycolipids. (B) The equilibrium dissociation constants (KD, inversely proportional to TCR avidity) were determined as the concentrations of tetramers required to yield 50% of maximal binding. Data shown were obtained using the CD4^+ iNKT cell clone HDD3, and similar results (not shown) were obtained with a second CD4^+ clone (HDD11) and a CD4^−8^− double negative iNKT cell clone (HDE3). (C) Analysis of iNKT cell clones labeled with 20 nM of hCD1d tetramers which were loaded with variable excesses of analog to constant hCD1d (25 to 1000 fold molar excess of glycolipid to hCD1d protein). The measured MFI values were normalized as the percent of the maximum staining intensity obtained with each analog loaded tetramer. Data presented were generated with HDD3 (CD4+) iNKT cell clone, and similar results (not shown) were obtained with HDE3 (DN) clone.

lipid excess at which tetramers were efficiently loaded: 25–50 fold
SMILES: CCCCCCCCCCCCCCCCCCCCCCCCCC(=O)N[C@@H](CO[C@H]1O[C@H](CO)[C@H](O)[C@H](O)[C@H]1O)[C@H](O)[C@H](O)CCCCCCCCCCCCCC [KRN7000, reference compound]
